Results: paper PMC11872507, “Lasso peptides sviceucin and siamycin I exhibit anti-virulence activity and restore vancomycin effectiveness in vancomycin-resistant pathogens” (iScience, 2025)
Values after ≈ are worked out from the molar mass of the structure shown.

Legend:
E. faecalis HIP11704 = experiment: microbe, parasite or virus in culture; type: cell-based, Enterococcus faecalis; conditions: Enterococcus faecalis, HIP11704, read-out: Vancomycin MIC
[1] = tested on: V583 ΔvanSBmalT::vanR^D53E; experiment: Vancomycin MIC, microdilution; type: cell-based; conditions: Enterococcus faecalis; vancomycin alone (control); phosphomimetic VanR^D53E
Description: (§1) The MIC of vancomycin was determined by the microdilution method described in the guidelines of the European Committee on Antimicrobial Susceptibility Testing (EUCAST 2024, v14.0 Breakpoint Tables).[58] For enterococci, GM17 medium was used instead of CAMH medium since enterococci cannot degrade starch, the main carbohydrate of MH medium. 2-fold serial dilutions of the tested antibiotic were performed to obtain concentrations ranging from 0.5 to 512 μg/mL. LP were then added to the wells at the desired concentration. The medium was inoculated with a final inoculum of 5 × 10^5 CFU/mL. The MIC is the lowest concentration that prevents visible in vitro growth.

E. faecalis V583 [2] = experiment: Checkerboard broth microdilution; type: cell-based; conditions: Enterococcus faecalis, control, vancomycin alone
Source text: Since sviceucin and siamycin I inhibit signal transduction of the FsrAC TCS in vivo, we next wondered if the lasso peptides would also target other TCSs. In E. faecalis, the VanRS TCS regulates resistance to vancomycin, an antibiotic of clinical importance. The minimum inhibitory concentrations (MICs) of this antibiotic in combination with the lasso peptides were thus determined for clinically relevant Enterococcus and S. aureus strains from our in-house collection. The chosen concentrations of the peptides (2 μM of siamycin I and 10 μM of sviceucin) are the lowest subinhibitory concentrations that allow the maximum synergy with vancomycin, as determined by the checkerboard method on the E. faecalis V583 strain (Table S1).

E. faecalis V583 [3] = experiment: microbe, parasite or virus in culture; type: cell-based, Enterococcus faecalis
SiaD = experiment: Vancomycin MIC, spontaneous mutants; type: cell-based; conditions: Enterococcus faecalis; vancomycin alone; CcpA A89P
Description: as §1
(§2) Resistant clones to sviceucin were selected by plating bacteria on GM17 agar medium supplemented with vancomycin at 32 μg/mL and sviceucin at 10 μM. Growth and MIC of vancomycin and sviceucin of the resistant clones were tested. The selection for siamycin I resistance was done by performing serial passages of bacteria in GM17 medium supplemented with vancomycin 10 μg/mL and increasing concentrations of siamycin I from 0.5 to 5 μM. Single nucleotide polymorphism (SNPs) analysis was performed on the sequenced gDNA of each selected resistant mutant.

SiaE = experiment: Vancomycin MIC, spontaneous mutants; type: cell-based; conditions: Enterococcus faecalis; vancomycin alone; frameshift in ccpA
Description: as §1, §2

SiaC = experiment: Vancomycin MIC, spontaneous mutants; type: cell-based; conditions: Enterococcus faecalis; vancomycin alone; CcpA A148V
Description: as §1, §2

Svic3 = experiment: Vancomycin MIC, spontaneous mutants; type: cell-based; conditions: Enterococcus faecalis; vancomycin alone; nonsense mutation in atpF
Description: as §1, §2

Svic4 = experiment: Vancomycin MIC, spontaneous mutants; type: cell-based; conditions: Enterococcus faecalis; vancomycin alone; atpD RBS modification
Description: as §1, §2

SiaB = experiment: Vancomycin MIC, spontaneous mutants; type: cell-based; conditions: Enterococcus faecalis; vancomycin alone; CcpA D121V
Description: as §1, §2

Svic2 = experiment: Vancomycin MIC, spontaneous mutants; type: cell-based; conditions: Enterococcus faecalis; vancomycin alone; nonsense mutation in atpA
Description: as §1, §2

Svic1 ΔvanB = experiment: Vancomycin MIC, microdilution; type: cell-based; conditions: Enterococcus faecalis; vancomycin alone (control)
Svic1 = experiment: Vancomycin MIC, microdilution; type: cell-based, Enterococcus faecalis
Description: as §1, §2

SiaA = experiment: Vancomycin MIC, microdilution; type: cell-based, Enterococcus faecalis
Description: as §1, §2

V583 vanSB^S402I = experiment: Vancomycin MIC, microdilution; type: cell-based; conditions: Enterococcus faecalis; vancomycin alone (control)
S. aureus 16038 (VISA) = experiment: microbe, parasite or virus in culture; type: cell-based, Staphylococcus aureus; conditions: Staphylococcus aureus, VISA, read-out: Vancomycin MIC
E. faecalis JH2-2 08048 = experiment: microbe, parasite or virus in culture; type: cell-based, Enterococcus faecalis; conditions: Enterococcus faecalis, JH2208048, read-out: Vancomycin MIC
Description: as §1

E. faecium 1 231 410 = experiment: microbe, parasite or virus in culture; type: cell-based, Enterococcus faecium; conditions: Enterococcus faecium, 1231410, read-out: Vancomycin MIC
E. faecalis V583 [4] = experiment: Vancomycin MIC with nanoemulsions; type: cell-based, Enterococcus faecalis; conditions: with blank NEs
Description: The formulation of the nanoemulsions was based on the spontaneous nanoemulsification method previously described by Séguy et al.[41] and transposed to lasso peptides. The present nanoemulsions were developed from anhydrous mixtures composed of excipients already described in the European Pharmacopeia (World Health Organization, 2018) and already proven to be hemocompatible on human whole blood. Monodisperse nanoemulsions could be formulated at a drug payload of 400 μg/mL for siamycin I. At these concentrations, the drug added to the anhydrous mixture during the formulation process appeared to be completely dissolved. After the addition of the aqueous phase, a homogeneous colloidal suspension was observed. The nanoemulsions were characterized in terms of granulometric and physicochemical properties (Table S6). The hydrodynamic diameter, zeta potential, and PDI were not changed relative to the blank nanoemulsions, remaining lower than 0.25, indicating the presence of a monodispersed population.

S. aureus T-SAR12 VRSA.B = experiment: microbe, parasite or virus in culture; type: cell-based, Staphylococcus aureus; conditions: Staphylococcus aureus, VRSA, read-out: Vancomycin MIC
Description: as §1

S. aureus T-SAR12 VRSA.A = experiment: microbe, parasite or virus in culture; type: cell-based, Staphylococcus aureus; conditions: Staphylococcus aureus, VRSA, read-out: Vancomycin MIC
Description: as §1

E. faecium 1 230 933 = experiment: microbe, parasite or virus in culture; type: cell-based, Enterococcus faecium; conditions: Enterococcus faecium, 1230933, read-out: Vancomycin MIC
E. faecalis merz96 = experiment: microbe, parasite or virus in culture; type: cell-based, Enterococcus faecalis; conditions: Enterococcus faecalis, MERZ96, read-out: Vancomycin MIC
[5] = Enterococcus faecalis, read-out: Vancomycin MIC

Q: Which results are given for `CN[C@H](CC(C)C)C(=O)N[C@H]1C(=O)N[C@@H](CC(N)=O)C(=O)N[C@H]2C(=O)N[C@H]3C(=O)N[C@H](C(=O)N[C@H](C(=O)O)c4cc(O)cc(O)c4-c4cc3ccc4O)[C@H](O)c3ccc(c(Cl)c3)Oc3cc2cc(c3O[C@@H]2O[C@H](CO)[C@@H](O)[C@H](O)[C@H]2O[C@H]2C[C@](C)(N)[C@H](O)[C@H](C)O2)Oc2ccc(cc2Cl)[C@H]1O` [Vancomycin]?
A: MIC (E. faecalis HIP11704): 1020 µg/mL (≈ 707 µM); MIC [1]: 32 µg/mL (≈ 22.1 µM); MIC (E. faecalis V583 [2]): 32 µg/mL; MIC (E. faecalis V583 [3]; Enterococcus faecalis, V583, read-out: Vancomycin MIC): 32 µg/mL (≈ 22.1 µM); Vancomycin MIC (E. faecalis V583 [3]; vancomycin alone (control, 1:1 water:methanol formulation), GM17, 5 × 10^5 CFU/mL, VanB): 32 µg/mL; MIC (SiaD): 64 µg/mL (≈ 44.2 µM); MIC (SiaE): 32 µg/mL; MIC (SiaC): 64 µg/mL (≈ 44.2 µM); MIC (Svic3): 256 µg/mL (≈ 177 µM); MIC (Svic4): 256 µg/mL (≈ 177 µM); MIC (SiaB): 64 µg/mL (≈ 44.2 µM); MIC (Svic2): 256 µg/mL (≈ 177 µM); MIC (Svic1 ΔvanB): 2 µg/mL (≈ 1.38 µM); MIC (Svic1; [5]): 128 µg/mL (≈ 88.3 µM); fold increase of the MIC of vancomycin vs wild-type (Svic1; vancomycin alone): 4 fold; Vancomycin MIC (Svic1; {}): 128 µg/mL; MIC (SiaA; [5]): 128 µg/mL (≈ 88.3 µM); fold increase of the MIC of vancomycin vs wild-type (SiaA; vancomycin alone): 4 fold; Vancomycin MIC (SiaA; {}): 128 µg/mL; MIC (V583 vanSB^S402I): 128 µg/mL (≈ 88.3 µM); MIC (S. aureus 16038 (VISA)): 4 µg/mL (≈ 2.76 µM); MIC (E. faecalis JH2-2 08048): 64 µg/mL (≈ 44.2 µM); MIC (E. faecium 1 231 410): 128 µg/mL (≈ 88.3 µM); Vancomycin MIC (E. faecalis V583 [4]): 32; MIC (S. aureus T-SAR12 VRSA.B): 64 µg/mL (≈ 44.2 µM); MIC (S. aureus T-SAR12 VRSA.A): > 512 µg/mL; MIC (E. faecium 1 230 933): 512 µg/mL (≈ 353 µM); MIC (E. faecalis merz96): 32 µg/mL (≈ 22.1 µM)
